US7968577B2 (Bristol-Myers Squibb Company, priority 2006, dated 2011)

The compounds below were run against T1, human full-length glucocorticoid receptor (Homo sapiens, UniProt P04150) (assay: Glucocorticoid Receptor Binding Assay (II), fluorescence polarization competitor kit (Fluormone GS1)). Conditions: GR Binding Assay (II).
T1 construct: recombinantly expressed human full-length glucocorticoid receptor; purchased PanVera Co., Madison, Wis; P2816
T1 sequence (P04150 1-777): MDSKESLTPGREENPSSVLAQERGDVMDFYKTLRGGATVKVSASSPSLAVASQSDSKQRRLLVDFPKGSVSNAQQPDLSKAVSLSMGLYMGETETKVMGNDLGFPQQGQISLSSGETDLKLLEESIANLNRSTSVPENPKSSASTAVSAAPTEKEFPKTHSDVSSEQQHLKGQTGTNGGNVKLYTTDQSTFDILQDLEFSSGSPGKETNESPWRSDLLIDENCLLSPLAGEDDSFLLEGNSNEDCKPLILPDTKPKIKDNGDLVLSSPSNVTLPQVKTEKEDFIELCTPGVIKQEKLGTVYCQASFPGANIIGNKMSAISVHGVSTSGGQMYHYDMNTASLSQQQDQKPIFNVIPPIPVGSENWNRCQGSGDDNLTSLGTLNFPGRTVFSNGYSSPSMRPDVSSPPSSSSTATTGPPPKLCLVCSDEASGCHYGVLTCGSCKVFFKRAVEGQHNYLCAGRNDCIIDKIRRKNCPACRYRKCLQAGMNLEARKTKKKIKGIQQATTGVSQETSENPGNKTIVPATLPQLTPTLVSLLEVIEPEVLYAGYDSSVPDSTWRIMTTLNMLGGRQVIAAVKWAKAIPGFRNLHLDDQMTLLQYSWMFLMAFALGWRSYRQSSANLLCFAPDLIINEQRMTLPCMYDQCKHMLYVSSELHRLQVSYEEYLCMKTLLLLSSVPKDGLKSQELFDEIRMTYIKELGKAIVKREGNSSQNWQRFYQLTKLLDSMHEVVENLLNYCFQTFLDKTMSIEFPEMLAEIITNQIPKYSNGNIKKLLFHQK
Protocol: Glucocorticoid Receptor Binding Assay (II)^b
In order to measure the binding of compounds on the glucocorticoid receptor a commercially available kit was used (Glucocorticoid receptor competitor assay kit, PanVera Co., Madison, Wis., P2816). Briefly, a cell lysate containing recombinantly expressed human full-length glucocorticoid receptor was mixed with a fluorescently labeled glucocorticoid (1 nM Fluormone GS1) in the presence or absence of test compound. After one hour at room temperature, the fluorescence polarization (FP) of the samples were measured.
`CC(C)(C(=O)Nc1nccs1)[C@@H](c1ccccc1)c1ccc(N2CCOCC2)cc1` (stereo in doubt) [Example 257, 2,2-dimethyl-3-(4-(4-morpholinyl)phenyl)-3-phenyl-N-1,3-thiazol-2-ylpropanamide] was tested, and the Ki was 71.4 nM.
In the case of `CC(C)(C(=O)Nc1nncs1)[C@@H](c1ccccc1)c1ccc(N2CCOCC2)cc1` (stereo in doubt) [Example 259, 2,2-dimethyl-3-(4-(4-morpholinyl)phenyl)-3-phenyl-N-1,3,4-thiadiazol-2-ylpropanamide], the Ki is reported as 190 nM.
Work on `COc1ccc(C(c2ccc(OC)cc2)C(C)(C)C(=O)Nc2nccs2)cc1` [Example 69, 2,2-dimethyl-3,3-bis(4-(methyloxy)phenyl)-N-1,3-thiazol-2-ylpropanamide] yielded a Ki of 67.2 nM.
`CC(C)(C(=O)Nc1nccs1)C(c1ccc(F)cc1)c1ccc(N2CCOCC2)cc1` (centres unmarked) [Example 222, 3-(4-Fluorophenyl)-2,2-dimethyl-3-(4-(4-morpholinyl)phenyl)-N-1,3-thiazol-2-ylpropanamide] was tested, and the Ki was 12.6 nM.
`Cc1ccc(C(c2ccc(N3CCOCC3)cc2)C(C)(C)C(=O)Nc2nncs2)cc1` (centres unmarked) [Example 226, 2,2-dimethyl-3-(4-methylphenyl)-3-(4-(4-morpholinyl)phenyl)-N-1,3,4-thiadiazol-2-ylpropanamide] was tested, and the Ki was 9.4 nM.
`CC(C)(C(=O)Nc1nncs1)C(c1ccc(F)cc1)c1ccc(N2CCOCC2)cc1` (centres unmarked) [Example 231, 3-(4-fluorophenyl)-2,2-dimethyl-3-(4-(4-morpholinyl)phenyl)-N-1,3,4-thiadiazol-2-ylpropanamide] gave a Ki of 18.2 nM.
With `CC(C)(C(=O)Nc1nccs1)C(c1ccc(Cl)cc1)c1ccc(N2CCOCC2)cc1` (centres unmarked) [Example 232, 3-(4-chlorophenyl)-2,2-dimethyl-3-(4-(4-morpholinyl)phenyl)-N-1,3-thiazol-2-ylpropanamide] the Ki was 14.5 nM.
Compound `CC(C)(C(=O)Nc1nncs1)C(c1ccc(Cl)cc1)c1ccc(N2CCOCC2)cc1` (centres unmarked) [Example 233, 3-(4-chlorophenyl)-2,2-dimethyl-3-(4-(4-morpholinyl)phenyl)-N-1,3,4-thiadiazol-2-ylpropanamide] has a Ki of 13.2 nM.
Work on `CC(C)(C(=O)Nc1nncs1)C(c1ccccc1)c1ccc(N2CCCC2)cc1` (centres unmarked) [Example 237, 2,2-dimethyl-3-phenyl-3-(4-(1-pyrrolidinyl)phenyl)-N-1,3,4-thiadiazol-2-ylpropanamide] yielded a Ki of 13.6 nM.
Work on `CC(C)(C)OC(=O)N1CCN(c2ccc(C(c3ccccc3)C(C)(C)C(=O)Nc3nncs3)cc2)CC1` (centres unmarked) [Example 238, 1,1-dimethylethyl 4-(4-(2,2-dimethyl-3-oxo-1-phenyl-3-(1,3,4-thiadiazol-2-ylamino)propyl)phenyl)-1-piperazinecarboxylate] yielded a Ki of 408 nM.
For `CC(C)(C)OC(=O)N1CCN(c2ccc(C(c3ccccc3)C(C)(C)C(=O)Nc3nccs3)cc2)CC1` (centres unmarked) [Example 239, 2,2-dimethylethyl 4-(4-(2,2-dimethyl-3-oxo-1-phenyl-3-(1,3-thiazol-2-ylamino)propyl)phenyl)-1-piperazinecarboxylate], the Ki was 324 nM.
With `Cc1ccc(CNc2ccc(C(c3ccccc3)C(C)(C)C(=O)Nc3nncs3)cc2)cc1` (centres unmarked) [Example 240, 2,2-dimethyl-3-(4-(((4-methylphenyl)methyl)amino)phenyl)-3-phenyl-N-1,3,4-thiadiazol-2-ylpropanamide] the Ki was 18.6 nM.
`CC(C)(C(=O)Nc1nncs1)C(c1ccccc1)c1ccc(N2CCC(O)CC2)cc1` (centres unmarked) [Example 241, 3-(4-(4-hydroxy-1-piperidinyl)phenyl)-2,2-dimethyl-3-phenyl-N-1,3,4-thiadiazol-2-ylpropanamide] gave a Ki of 31.3 nM.
For `CC(C)(C(=O)Nc1nccs1)C(c1ccccc1)c1ccc(N2CCC(O)CC2)cc1` (centres unmarked) [Example 242, 3-(4-(4-hydroxy-1-piperidinyl)phenyl)-2,2-dimethyl-3-phenyl-N-1,3-thiazol-2-ylpropanamide], the Ki was 9.6 nM.
`CC(C)(C(=O)Nc1nccs1)C(c1ccccc1)c1ccc(Nc2ccc(F)cc2)cc1` (centres unmarked) [Example 243, 3-(4-((4-fluorophenyl)amino)phenyl)-2,2-dimethyl-3-phenyl-N-1,3-thiazol-2-ylpropanamide] was tested, and the Ki was 29.1 nM.
In the case of `CC(C)(C(=O)Nc1nncs1)C(c1ccccc1)c1ccc(N2CCOCC2)c(F)c1` (centres unmarked) [Example 244, 3-(3-fluoro-4-(4-morpholinyl)phenyl)-2,2-dimethyl-3-phenyl-N-1,3,4-thiadiazol-2-ylpropanamide], the Ki is reported as 17.8 nM.
`CC(C)(C(=O)Nc1nncs1)C(c1ccccc1)c1cccc(N2CCOCC2)c1` (centres unmarked) [Example 245, 2,2-dimethyl-3-(3-(4-morpholinyl)phenyl)-3-phenyl-N-1,3,4-thiadiazol-2-ylpropanamide] was tested, and the Ki was 2310 nM.
`CC(=O)Nc1ccc(C(c2ccccc2)C(C)(C)C(=O)Nc2nncs2)cc1` (centres unmarked) [Example 246, 3-(4-(acetylamino)phenyl)-2,2-dimethyl-3-phenyl-N-1,3,4-thiadiazol-2-ylpropanamide] was tested, and the Ki was 1500 nM.
Compound `CC(=O)Nc1ccc(C(c2ccccc2)C(C)(C)C(=O)Nc2nccs2)cc1` (centres unmarked) [Example 247, 3-(4-(acetylamino)phenyl)-2,2-dimethyl-3-phenyl-N-1,3-thiazol-2-ylpropanamide] has a Ki of 413 nM.
Compound `CC(C)(C)OC(=O)Nc1ccc(C(c2ccccc2)C(C)(C)C(=O)Nc2nncs2)cc1` (centres unmarked) [Example 248, 1,1-dimethylethyl (4-(2,2-dimethyl-3-oxo-1-phenyl-3-(1,3,4-thiadiazol-2-ylamino)propyl)phenyl)carbamate] has a Ki of 306 nM.
`CC(C)(C(=O)Nc1nccs1)C(C)(c1ccccc1)c1ccc(N2CCOCC2)cc1` (centres unmarked) [Example 249, 2,2-dimethyl-3-(4-(4-morpholinyl)phenyl)-3-phenyl-N-1,3-thiazol-2-ylbutanamide] was tested, and the Ki was 181 nM.
With `CC(C)(C(=O)Nc1nccs1)C(c1ccccc1)c1ccc(N2CCNCC2)cc1` (centres unmarked) [Example 250, 2,2-Dimethyl-3-phenyl-3-(4-(1-piperazinyl)phenyl)-N-1,3-thiazol-2-ylpropanamide] the Ki was 348 nM.
In the case of `CC(C)(C(=O)Nc1nncs1)C(c1ccccc1)c1ccc(N2CCNCC2)cc1` (centres unmarked) [Example 251, 2,2-dimethyl-3-phenyl-3-(4-(1-piperazinyl)phenyl)-N-1,3,4-thiadiazol-2-ylpropanamide], the Ki is reported as 636 nM.
`CC(C)(C(=O)Nc1nncs1)C(c1ccccc1)c1ccc(N)cc1` (centres unmarked) [Example 252, 3-(4-aminophenyl)-2,2-dimethyl-3-phenyl-N-1,3,4-thiadiazol-2-ylpropanamide] gave a Ki of 60.5 nM.
Work on `CCOC(=O)c1csc(NC(=O)C(C)(C)[C@@H](c2ccccc2)c2ccc(OC)cc2)n1` [Example 263, ethyl 2-((2,2-dimethyl-3-(4-(methyloxy)phenyl)-3-phenylpropanoyl)amino)-1,3-thiazole-4-carboxylate] yielded a Ki of 130 nM.
Compound `COc1ccc([C@H](c2ccccc2)C(C)(C)C(=O)Nc2nc(C)cs2)cc1` [Example 265, 2,2-dimethyl-3-(4-(methyloxy)phenyl)-N-(4-methyl-1,3-thiazol-2-yl)-3-phenylpropanamide] has a Ki of 193 nM.
`COc1ccc([C@@H](c2ccccc2)C(C)(C)C(=O)Nc2nc(C)cs2)cc1` [Example 266, 2,2-dimethyl-3-(4-(methyloxy)phenyl)-N-(4-methyl-1,3-thiazol-2-yl)-3-phenylpropanamide] was tested, and the Ki was 315 nM.

These compounds were tested on AP-1 induced transcriptional activity (assay: Cellular Transrepressional Assay: AP-1 luciferase reporter in PMA-activated A549 cells). Conditions: Homo sapiens, A549, 7 h, maximum inhibition, Cellular Transrepression Assay; read-out: AP-1 Max % inh (Cellular Transrepression Assay).
Assay type: cell-based
How it was run: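 Compounds tested from 0.1 nM to 40 μM during a 7 h PMA (10 ng/ml) stimulation of A549 cells stably transfected with 7× AP-1 sites driving luciferase. Repression expressed as % reduction of PMA-induced luminescence; EC50 by curve fitting.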
`CC(C)c1cccc(-c2ccc(C(c3ccccc3)C(C)(C)C(=O)Nc3nncs3)cc2)c1` (centres unmarked) [Example 423, 3-(3′-isopropyl-4-biphenylyl)-2,2-dimethyl-3-phenyl-N-1,3,4-thiadiazol-2-ylpropanamide] was tested, and the Emax was 34.8%.
Work on `CC(C)(C)NC(=O)c1ccc(-c2ccc(C(c3ccccc3)C(C)(C)C(=O)Nc3nncs3)cc2)cc1` (centres unmarked) [Example 424, N-tert-butyl-4′-(2,2-dimethyl-3-oxo-1-phenyl-3-(1,3,4-thiadiazol-2-ylamino)propyl)-4-biphenylcarboxamide] yielded an Emax of 26.4%.
For `CC(C)(C(=O)Nc1nncs1)C(c1ccccc1)c1ccc(-c2ccc(C(=O)NC3CC3)cc2)cc1` (centres unmarked) [Example 425, N-cyclopropyl-4′-(2,2-dimethyl-3-oxo-1-phenyl-3-(1,3,4-thiadiazol-2-ylamino)propyl)-4-biphenylcarboxamide], the Emax was 28.7%.
Compound `CCCCOc1ccc(-c2ccc(C(CC(C)C)C(C)(C)C(=O)Nc3nncs3)cc2)cc1` (centres unmarked) [Example 442, 3-(4′-butoxy-4-biphenylyl)-2,2,5-trimethyl-N-1,3,4-thiadiazol-2-ylhexanamide] has an Emax of 22.7%.

Same assay, conditions: Homo sapiens, A549, Cellular Transrepression Assay
In the case of `CC(C)c1cccc(-c2ccc(C(c3ccccc3)C(C)(C)C(=O)Nc3nncs3)cc2)c1` (centres unmarked) [Example 423, 3-(3′-isopropyl-4-biphenylyl)-2,2-dimethyl-3-phenyl-N-1,3,4-thiadiazol-2-ylpropanamide], the EC50 is reported as 6.07 nM.
Work on `CC(C)(C)NC(=O)c1ccc(-c2ccc(C(c3ccccc3)C(C)(C)C(=O)Nc3nncs3)cc2)cc1` (centres unmarked) [Example 424, N-tert-butyl-4′-(2,2-dimethyl-3-oxo-1-phenyl-3-(1,3,4-thiadiazol-2-ylamino)propyl)-4-biphenylcarboxamide] yielded an EC50 of 14.5 nM.
Compound `CC(C)(C(=O)Nc1nncs1)C(c1ccccc1)c1ccc(-c2ccc(C(=O)NC3CC3)cc2)cc1` (centres unmarked) [Example 425, N-cyclopropyl-4′-(2,2-dimethyl-3-oxo-1-phenyl-3-(1,3,4-thiadiazol-2-ylamino)propyl)-4-biphenylcarboxamide] has an EC50 of 3.63 nM.
`CCCCOc1ccc(-c2ccc(C(CC(C)C)C(C)(C)C(=O)Nc3nncs3)cc2)cc1` (centres unmarked) [Example 442, 3-(4′-butoxy-4-biphenylyl)-2,2,5-trimethyl-N-1,3,4-thiadiazol-2-ylhexanamide] was tested, and the EC50 was 11.7 nM.
